{"source": "patent US20110171136A1", "about": "“OPTICAL IMAGING PROBES” (priority 2002, published 2011)", "test_system": "A431 cells", "assay": "in vitro uptake competition experiments with glucose", "type": "cell-based, human", "settings": "1 mM (monovalent) or 0.7 mM (bivalent) probe, 30 minutes, 50 and 100 mM glucose respectively, FIGS. 3B and 3D", "experimental": "The A431 cell line was obtained from the American Type Culture Collection and grown in DMEM with 4.5 g/l glucose, supplemented with 10% fetal bovine serum (Life Technologies, NY) and cultured in a humidified atmosphere containing 5% CO2 and 95% air at 37° C.\nUtilizing the monovalent and bivalent Cy5.5-conjugated glucose probes, in vitro uptake competition experiments were performed by incubating A431 cells with 1 mM (monovalent) or 0.7 mM (bivalent) of each probe, for 30 minutes, in the presence of 50 and 100 mM glucose, respectively. After removal of the medium, cells were rinsed with ice-cold PBS and visualized under confocal microscopy. […] Under the same conditions, free Cy5.5 uptake by A431 cells was not inhibited by incubation with glucose.", "data": [{"smiles": "CCN1\\C(=C/C=C/C=C/C2=[N+](CCCCCC(=O)O)c3ccc4c(S(=O)(=O)O)cc(S(=O)(=O)O)cc4c3C2(C)C)C(C)(C)c2c1ccc1c(S(=O)(=O)[O-])cc(S(=O)(=O)O)cc21", "note": "[free Cy5.5]", "values": [{"measurement": "inhibition of cellular uptake of probe by glucose", "result": "not inhibited"}]}]}
